# Measurements published in patent US10307420B2, “Treating sexual desire disorders with flibanserin” (Sprout Pharmaceuticals, Inc., priority 2001, dated 2019).
# Columns and labels:
# [1] = system: 5HT2-receptor; settings: statement in the background, no value; cited from earlier work
# [2] = molecular target: T1, 5-HT1A receptor (Homo sapiens, UniProt P08908); settings: statement in the background, no value; cited from earlier work
# T1 sequence (P08908 1-422): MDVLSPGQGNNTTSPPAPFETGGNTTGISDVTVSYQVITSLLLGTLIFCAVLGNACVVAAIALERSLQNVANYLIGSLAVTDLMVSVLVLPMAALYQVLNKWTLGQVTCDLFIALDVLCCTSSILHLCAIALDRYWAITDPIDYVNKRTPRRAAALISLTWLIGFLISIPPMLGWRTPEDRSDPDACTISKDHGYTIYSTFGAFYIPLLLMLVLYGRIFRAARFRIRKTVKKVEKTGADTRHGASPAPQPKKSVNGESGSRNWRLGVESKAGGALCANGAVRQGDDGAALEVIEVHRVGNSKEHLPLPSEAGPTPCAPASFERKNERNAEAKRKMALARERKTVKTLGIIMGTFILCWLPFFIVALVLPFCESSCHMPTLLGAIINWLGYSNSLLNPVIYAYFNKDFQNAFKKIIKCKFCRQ
# [3] = studies of male and female patients suffering from sexual dysfunction; assay type: in vivo, human patients
# Description: Accordingly, the instant invention relates to the use of flibanserin, optionally in form of the pharmacologically acceptable acid addition salts thereof for the preparation of a medicament for the treatment of disorders of sexual desire.
structure (smiles),measurement,setting,value
"O=c1[nH]c2ccccc2n1CCN1CCN(c2cccc(C(F)(F)F)c2)CC1 [Flibanserin, 1-[2-(4-(3-trifluoromethyl-phenyl)piperazin-1-yl)ethyl]-2,3-dihydro-1H-benzimidazol-2-one]",affinity for the 5HT2-receptor,[1],shows affinity
same,affinity for the 5-HT1A receptor,[2],shows affinity
same,sexual desire enhancing properties,[3],displays sexual desire enhancing properties
